Measurements as given in ChEMBL document CHEMBL1201862, “PubChem BioAssay data set” (2004).
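Grown in 96-well plates, cells were treated for 48 hours with each compound at five concentrations. Insufficient inhibition: endpoint recorded as highest concentration tested. At the GI50, growth is halved.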 Activity calls are given as the source filed them. No stated cut-off is given here; in the data, active = GI50 up to about 1.1 µM and inactive = higher. Where a SMILES comes first, the peptide text is derived from it. [ ]: non-standard residue; d: D form. The star is where a group is joined. NMeAc5c = CNC1(C(=O)O)CCCC1; Boc = CC(C)(C)OC(=O)*; OBn = c1ccc(CO*)cc1

Legend:
Assay in all cases: growth of human tumour cells (NCI), 48 h
CCRF-CEM = system: CCRF-CEM
M14 = system: M14
RPMI-8226 = system: RPMI-8226
MDA-N = system: MDA-N
NCI-H522 = system: NCI-H522
HCT-15 = system: HCT-15
OVCAR-5 = system: OVCAR-5
NCI/ADR-RES = system: NCI/ADR-RES
SF-539 = system: SF-539
HOP-92 = system: HOP-92
COLO 205 = system: COLO 205
SK-OV-3 = system: SK-OV-3
TK-10 = system: TK-10
BT-549 = system: BT-549
A549 = system: A549
OVCAR-4 = system: OVCAR-4
RXF 393 = system: RXF 393
ACHN = system: ACHN
UO-31 = system: UO-31

| Compound | GI50 (CCRF-CEM) | GI50 (M14) | GI50 (RPMI-8226) | GI50 (MDA-N) | GI50 (NCI-H522) | GI50 (HCT-15) [µM] | GI50 (OVCAR-5) | GI50 (NCI/ADR-RES) | GI50 (SF-539) | GI50 (HOP-92) | GI50 (COLO 205) | GI50 (SK-OV-3) | GI50 (TK-10) | GI50 (BT-549) | GI50 (A549) | GI50 (OVCAR-4) | GI50 (RXF 393) | GI50 (ACHN) | GI50 (UO-31) |
| --- | --- | --- | --- | --- | --- | --- | --- | --- | --- | --- | --- | --- | --- | --- | --- | --- | --- | --- | --- |
| O=[N+]([O-])c1cc(F)ccc1Sc1ccccc1 | > 10 µM (inactive) | > 10 µM (inactive) | > 10 µM (inactive) | > 10 µM (inactive) | > 10 µM (inactive) | > 10 | > 10 µM (inactive) | > 10 µM (inactive) | > 10 µM (inactive) | > 10 µM (inactive) | > 10 µM (inactive) | > 10 µM (inactive) | > 10 µM (inactive) | > 10 µM (inactive) | > 10 µM (inactive) | > 10 µM (inactive) | > 10 µM (inactive) | > 10 µM (inactive) | – |
| CN(/N=C/c1cccs1)c1ccc(Cl)cc1[N+](=O)[O-] | 19.1 µM (inactive) | 34.2 µM (inactive) | 22 µM (inactive) | 3.84 µM (inactive) | 22.6 µM (inactive) | 10.6 | – | 18.9 µM (inactive) | 25 µM (inactive) | – | > 10 µM (inactive) | 40.8 µM (inactive) | 35.2 µM (inactive) | 40.6 µM (inactive) | 30.3 µM (inactive) | 59.3 µM (inactive) | 23.6 µM (inactive) | 40 µM (inactive) | 36.9 µM (inactive) |
| CN(C(=O)C(Cc1ccccc1)NC(=O)OC(C)(C)C)C1(C(=O)NC(Cc2ccccc2)C(=O)OCc2ccccc2)CCCC1 (stereo not drawn) (Boc-Phe-[NMeAc5c]-Phe-OBn; configuration not given here) | 39.7 µM (inactive) | 23.1 µM (inactive) | 22.5 µM (inactive) | 23.2 µM (inactive) | – | 28.7 | > 100 µM (inactive) | 27.7 µM (inactive) | 74.3 µM (inactive) | 53.7 µM (inactive) | 22.3 µM (inactive) | 0.653 µM (active) | 34.8 µM (inactive) | > 100 µM (inactive) | 33.3 µM (inactive) | > 100 µM (inactive) | 44.7 µM (inactive) | 24.9 µM (inactive) | 25.9 µM (inactive) |
| Cc1ccc(S(=O)(=O)c2scc(-c3ccccc3)c2C)cc1 | – | > 100 µM (inactive) | 44.2 µM (inactive) | > 100 µM (inactive) | > 100 µM (inactive) | > 100 | – | 35.5 µM (inactive) | 61 µM (inactive) | 72.4 µM (inactive) | > 100 µM (inactive) | > 100 µM (inactive) | > 100 µM (inactive) | 98.6 µM (inactive) | 57.8 µM (inactive) | > 100 µM (inactive) | > 100 µM (inactive) | 67.6 µM (inactive) | > 100 µM (inactive) |
| O=c1[nH]cnc2cccc(Cl)c12 | > 100 µM (inactive) | > 100 µM (inactive) | – | > 100 µM (inactive) | > 100 µM (inactive) | > 100 | > 100 µM (inactive) | > 100 µM (inactive) | > 100 µM (inactive) | – | > 100 µM (inactive) | > 100 µM (inactive) | > 100 µM (inactive) | > 100 µM (inactive) | > 100 µM (inactive) | > 100 µM (inactive) | > 100 µM (inactive) | > 100 µM (inactive) | > 100 µM (inactive) |
| COc1cccc(OC)c1C1ON=C(c2ccccc2)N1C12CC3CC(CC(C3)C1)C2 (configuration not stated) | – | 78 µM (inactive) | 4.41 µM (inactive) | > 100 µM (inactive) | 31 µM (inactive) | > 100 | 46.2 µM (inactive) | > 100 µM (inactive) | > 100 µM (inactive) | 10.9 µM (inactive) | > 100 µM (inactive) | 38.1 µM (inactive) | 36.6 µM (inactive) | > 100 µM (inactive) | 64.3 µM (inactive) | – | 1.2 µM (inactive) | 35.3 µM (inactive) | > 100 µM (inactive) |
| CCCCCCCCCCCCOc1ccc(/C=C/C2=[N+](CCCl)CCO2)cc1 | 22.8 µM (inactive) | > 100 µM (inactive) | 20.1 µM (inactive) | 75.9 µM (inactive) | 17 µM (inactive) | 31.7 | > 100 µM (inactive) | 46.1 µM (inactive) | > 100 µM (inactive) | 25.1 µM (inactive) | > 100 µM (inactive) | > 100 µM (inactive) | 47.6 µM (inactive) | > 100 µM (inactive) | 65.2 µM (inactive) | 41.7 µM (inactive) | – | 50.2 µM (inactive) | 47.3 µM (inactive) |
| CC1C(=O)OC2CC[N+]3([O-])CC=C(COC(=O)C(C)(O)C1(C)O)C23 (configuration not stated) | > 100 µM (inactive) | > 100 µM (inactive) | > 100 µM (inactive) | > 100 µM (inactive) | > 100 µM (inactive) | > 100 | > 100 µM (inactive) | > 100 µM (inactive) | > 100 µM (inactive) | > 100 µM (inactive) | > 100 µM (inactive) | > 100 µM (inactive) | > 100 µM (inactive) | > 100 µM (inactive) | > 100 µM (inactive) | > 100 µM (inactive) | > 100 µM (inactive) | > 100 µM (inactive) | – |
| N=c1nc(N)nc(N)n1-c1ccc(S(N)(=O)=O)cc1 | > 100 µM (inactive) | > 100 µM (inactive) | – | > 100 µM (inactive) | > 100 µM (inactive) | > 100 | > 100 µM (inactive) | > 100 µM (inactive) | – | > 100 µM (inactive) | – | – | > 100 µM (inactive) | > 100 µM (inactive) | > 100 µM (inactive) | > 100 µM (inactive) | > 100 µM (inactive) | > 100 µM (inactive) | > 100 µM (inactive) |
| COc1cc(Oc2nc3cc(F)c(F)cc3nc2-c2ccccc2)cc(OC)c1OC | > 100 µM (inactive) | 45.3 µM (inactive) | – | > 100 µM (inactive) | 13.9 µM (inactive) | 51.9 | > 100 µM (inactive) | > 100 µM (inactive) | 26.8 µM (inactive) | > 100 µM (inactive) | > 100 µM (inactive) | > 100 µM (inactive) | 68.2 µM (inactive) | > 100 µM (inactive) | > 100 µM (inactive) | 79.3 µM (inactive) | > 100 µM (inactive) | 43.5 µM (inactive) | 73.6 µM (inactive) |
| COc1ccc(/C=C2\CN(C)Cc3c2nc(O)c(C#N)c3-c2ccc(OC)cc2)cc1 | 40.5 µM (inactive) | 39.7 µM (inactive) | 21.7 µM (inactive) | 47.2 µM (inactive) | 48.8 µM (inactive) | 64.9 | > 100 µM (inactive) | 56.2 µM (inactive) | – | 25.2 µM (inactive) | 66.1 µM (inactive) | 38.1 µM (inactive) | 43.4 µM (inactive) | > 100 µM (inactive) | 44.6 µM (inactive) | 37.1 µM (inactive) | 24.3 µM (inactive) | > 100 µM (inactive) | > 100 µM (inactive) |
| COC(=O)/C=C(\C)CC(O)/C=C(\C)CCC=C(C)C (configuration not stated) | 30.8 µM (inactive) | 38.5 µM (inactive) | – | 35.5 µM (inactive) | – | 58.6 | > 100 µM (inactive) | 16.2 µM (inactive) | > 100 µM (inactive) | 71.6 µM (inactive) | 41.2 µM (inactive) | > 100 µM (inactive) | 55.8 µM (inactive) | 31.2 µM (inactive) | 34.3 µM (inactive) | 44 µM (inactive) | 31.7 µM (inactive) | 64.7 µM (inactive) | 33.5 µM (inactive) |
| CCCCn1c(O)nc2c(N)ncnc21 | > 100 µM (inactive) | > 100 µM (inactive) | – | > 100 µM (inactive) | > 100 µM (inactive) | > 100 | > 100 µM (inactive) | > 100 µM (inactive) | > 100 µM (inactive) | > 100 µM (inactive) | > 100 µM (inactive) | > 100 µM (inactive) | > 100 µM (inactive) | > 100 µM (inactive) | > 100 µM (inactive) | > 100 µM (inactive) | > 100 µM (inactive) | > 100 µM (inactive) | > 100 µM (inactive) |
| Cc1cc(-n2nnc(C(=O)O)c2-c2ccccc2)c2ccc(Cl)cc2n1 | > 100 µM (inactive) | > 100 µM (inactive) | – | > 100 µM (inactive) | > 100 µM (inactive) | > 100 | > 100 µM (inactive) | > 100 µM (inactive) | > 100 µM (inactive) | > 100 µM (inactive) | > 100 µM (inactive) | > 100 µM (inactive) | > 100 µM (inactive) | > 100 µM (inactive) | > 100 µM (inactive) | > 100 µM (inactive) | > 100 µM (inactive) | > 100 µM (inactive) | > 100 µM (inactive) |
| ClC(Cl)(Cl)C(N1CCN(c2ccccc2)CC1)N1CCN(c2ccccc2)CC1 | – | > 100 µM (inactive) | > 100 µM (inactive) | > 100 µM (inactive) | > 100 µM (inactive) | > 100 | > 100 µM (inactive) | > 100 µM (inactive) | – | > 100 µM (inactive) | > 100 µM (inactive) | – | > 100 µM (inactive) | > 100 µM (inactive) | > 100 µM (inactive) | > 100 µM (inactive) | > 100 µM (inactive) | > 100 µM (inactive) | > 100 µM (inactive) |
| Cc1n[n+](CC(=O)c2ccccc2)c2sc(N)nn12 | > 100 µM (inactive) | > 100 µM (inactive) | > 100 µM (inactive) | > 100 µM (inactive) | > 100 µM (inactive) | > 100 | > 100 µM (inactive) | > 100 µM (inactive) | – | – | > 100 µM (inactive) | > 100 µM (inactive) | > 100 µM (inactive) | > 100 µM (inactive) | 96.8 µM (inactive) | > 100 µM (inactive) | > 100 µM (inactive) | > 100 µM (inactive) | > 100 µM (inactive) |
